ChEMBL document CHEMBL5532639, “Heterocyclic pyrimidine derivatives as promising antibacterial agents” (Eur J Med Chem, 2023)
In brackets after ≈: the same amount, converted by molar mass.

Columns and labels:
Escherichia coli [1] = assay: microbe, parasite or virus in culture; settings: ATCC 25922, 24 h
Description: Antibacterial activity against Escherichia coli ATCC 25922 assessed as reduction in bacterial growth measured after 24 hrs by Mueller-Hinton broth assay

Bacillus subtilis [2] = assay: Antibacterial activity against Bacillus subtilis ATCC 465 assessed as reduction in bacterial growth measured after 24 hrs by Mueller-Hinton broth assay; type: functional
Staphylococcus aureus [3] = assay: microbe, parasite or virus in culture; settings: ATCC 25923, 24 h
Description: Antibacterial activity against Staphylococcus aureus ATCC 25923 assessed as reduction in bacterial growth measured after 24 hrs by Mueller-Hinton broth assay

Pseudomonas aeruginosa [4] = assay: Antibacterial activity against Pseudomonas aeruginosa assessed as reduction in bacterial growth incubated for 24 hrs by broth microdilution method; type: functional
Streptococcus pyogenes [5] = assay: Antibacterial activity against Streptococcus pyogenes assessed as reduction in microbial growth incubated for 24 hrs by broth micro-dilution method; type: functional
Klebsiella pneumoniae = assay: Antibacterial activity against Klebsiella pneumoniae assessed as reduction in bacterial growth incubated for 16 to 20 hrs by Mueller-Hinton broth based two-fold serial dilution method; type: functional; settings: time 16-20 hrs
Staphylococcus aureus [6] = assay: Antibacterial activity against Staphylococcus aureus assessed as reduction in bacterial growth incubated for 16 to 20 hrs by Mueller-Hinton broth based two-fold serial dilution method; type: functional; settings: time 16-20 hrs
Escherichia coli [7] = assay: Antibacterial activity against Escherichia coli assessed as reduction in bacterial growth incubated for 16 to 20 hrs by Mueller-Hinton broth based two-fold serial dilution method; type: functional; settings: time 16-20 hrs
Bacillus subtilis [8] = assay: Antibacterial activity against Bacillus subtilis assessed as bacterial growth inhibition by measuring zone of inhibition at 50 ug/ml by agar cup diffusion assay; type: functional; settings: read-out: IZ
Pseudomonas aeruginosa [9] = assay: Antibacterial activity against Pseudomonas aeruginosa assessed as inhibition of microbial growth by broth micro-dilution method; type: functional
Escherichia coli [10] = assay: Antibacterial activity against Escherichia coli assessed as bacterial growth inhibition by measuring zone of inhibition at 50 ug/ml by agar cup diffusion assay; type: functional; settings: read-out: IZ
Bacillus subtilis [11] = assay: Antibacterial activity against Bacillus subtilis 6633 assessed as reduction in bacterial growth; type: functional
Streptococcus pyogenes [12] = assay: Antibacterial activity against Streptococcus pyogenes assessed as inhibition of microbial growth by broth micro-dilution method; type: functional
Salmonella typhimurium [13] = assay: Antibacterial activity against Salmonella typhimurium DT104 assessed as bacterial growth inhibition by measuring zone of inhibition at 50 ug/ml by agar cup diffusion assay; type: functional, Salmonella enterica subsp. enterica serovar Typhimurium; settings: Salmonella enterica, read-out: IZ
Staphylococcus aureus [14] = assay: Antibacterial activity against Staphylococcus aureus assessed as bacterial growth inhibition by measuring zone of inhibition at 50 ug/ml by agar cup diffusion assay; type: functional; settings: read-out: IZ
Staphylococcus aureus [15] = assay: Antibacterial activity against Staphylococcus aureus ATCC 3750 assessed as reduction in bacterial growth; type: functional
Pseudomonas aeruginosa [16] = assay: Antibacterial activity against Pseudomonas aeruginosa ATCC 85327 assessed as reduction in bacterial growth measured after 24 hrs by Mueller-Hinton broth assay; type: functional
Salmonella typhimurium [17] = assay: Antibacterial activity against Salmonella typhimurium DT104 assessed as reduction in bacterial growth; type: functional, Salmonella enterica subsp. enterica serovar Typhimurium; settings: Salmonella enterica
Staphylococcus aureus [18] = assay: Antibacterial activity against Staphylococcus aureus assessed as inhibition of microbial growth by broth micro-dilution method; type: functional
Escherichia coli [19] = assay: Antibacterial activity against Escherichia coli ATCC 25922 assessed as bacterial growth inhibition; type: functional
Escherichia coli [20] = assay: Antibacterial activity against Escherichia coli assessed as inhibition of microbial growth by broth micro-dilution method; type: functional
Micrococcus luteus [21] = assay: Antibacterial activity against Micrococcus luteus assessed as bacterial growth inhibition by paper disc diffusion assay; type: functional
Staphylococcus cohnii = assay: Antibacterial activity against Staphylococcus cohnii; type: functional
[22] = system: Corynebacterium glutamicum; assay: Antibacterial activity against Corynebacterium glutamicum ATCC 13032 cultured in MHB medium assessed as no bacterial growth incubated at 20 degC for 24 hrs by microdilution susceptibility test; type: functional
[23] = system: Staphylococcus epidermidis; assay: Antibacterial activity against Staphylococcus epidermidis assessed as reduction in bacterial growth measured after 24 hrs by broth microdilution method; type: functional
[24] = system: Staphylococcus epidermidis; assay: Antibacterial activity against Staphylococcus epidermidis assessed as reduction in microbial growth after 24 hrs by CLSI based microdilution method; type: functional
Micrococcus luteus [25] = assay: Antibacterial activity against Micrococcus luteus assessed as reduction in microbial growth; type: functional
Alcaligenes faecalis = assay: Antibacterial activity against Alcaligenes faecalis; type: functional
[26] = system: Staphylococcus haemolyticus; assay: Antibacterial activity against Staphylococcus haemolyticus clinical isolates assessed as bacterial growth inhibition measured after 16 to 24 hrs by broth microdilution assay; type: functional; settings: time 16-24 hrs
[27] = system: Arcanobacterium haemolyticum; assay: Antibacterial activity against Arcanobacterium haemolyticum; type: functional
Corynebacterium sp. = assay: Antibacterial activity against Corynebacterium sp.; type: functional
Staphylococcus hominis = assay: Antibacterial activity against Staphylococcus hominis; type: functional
Moraxella catarrhalis = assay: Antibacterial activity against Moraxella catarrhalis assessed as reduction in bacterial growth by broth microdilution method; type: functional
[28] = system: Corynebacterium glutamicum; assay: Antibacterial activity against Corynebacterium glutamicum; type: functional
Acinetobacter sp. = assay: Antibacterial activity against Acinetobacter sp.; type: functional
Staphylococcus xylosus = assay: Antibacterial activity against Staphylococcus xylosus assessed as reduction in bacterial growth; type: functional
Corynebacterium xerosis = assay: Antibacterial activity against Corynebacterium xerosis; type: functional
Micrococcus sp. = assay: Antibacterial activity against Micrococcus sp.; type: functional

Compound `Cc1ccc(-c2c(N)c(C#N)nc3[nH]c(=O)[nH]c(=O)c23)cc1` has an MIC (Escherichia coli [1]) of 512 µg/mL (≈ 1750 µM), an MIC (Bacillus subtilis [2]) of 2 µg/mL (≈ 6.82 µM) and an MIC (Staphylococcus aureus [3]) of 32 µg/mL (≈ 109 µM).
In the case of `Nc1cccc(/C=N/Nc2nc3nc(-c4ccc(Cl)cc4)c(-c4nc5ccccc5s4)c(N)c3c(=O)[nH]2)c1`, the MIC (Pseudomonas aeruginosa [4]) is reported as 25 µg/mL (≈ 46.4 µM), the MIC (Streptococcus pyogenes [5]) is reported as 12.5 µg/mL and the MIC (Klebsiella pneumoniae) is reported as 12.5 µg/mL (≈ 23.2 µM). For the same compound, the MIC (Staphylococcus aureus [6]) was 25 µg/mL (≈ 46.4 µM) and the MIC (Escherichia coli [7]) was 12.5 µg/mL (≈ 23.2 µM).
For `O=C(N[C@H](CO)[C@H](O)c1ccc([N+](=O)[O-])cc1)C(Cl)Cl` [CHLORAMPHENICOL], the zone of inhibition at 50 µg/mL (Bacillus subtilis [8]) was 20 mm, the MIC (Pseudomonas aeruginosa [9]) was 50 µg/mL and the zone of inhibition at 50 µg/mL (Escherichia coli [10]) was 18 mm. The MIC (Bacillus subtilis [11]) was 6 µg/mL (≈ 18.6 µM), the MIC (Streptococcus pyogenes [12]) was 50 µg/mL and the zone of inhibition at 50 µg/mL (Salmonella typhimurium [13]) was 24 mm. It also gave a zone of inhibition at 50 µg/mL (Staphylococcus aureus [14]) of 25 mm, an MIC (Staphylococcus aureus [15]) of 5 µg/mL (≈ 15.5 µM) and an MIC (Pseudomonas aeruginosa [16]) of 256 µg/mL (≈ 792 µM). The MIC (Salmonella typhimurium [17]) was 6 µg/mL (≈ 18.6 µM), the MIC (Staphylococcus aureus [18]) was 50 µg/mL and the MIC (Escherichia coli [1]) was 4 µg/mL (≈ 12.4 µM). It also gave an MIC (Escherichia coli [19]) of 4 µg/mL (≈ 12.4 µM), an MIC (Bacillus subtilis [2]) of 4 µg/mL (≈ 12.4 µM) and an MIC (Escherichia coli [20]) of 50 µg/mL. It also gave an MIC (Staphylococcus aureus [3]) of 8 µg/mL (≈ 24.8 µM).
With `Nc1nc(Cl)c(C(Cc2ccccc2)c2ccc(Cl)cc2)c(Cl)n1` (stereo unspecified) the MIC (Micrococcus luteus [21]) was 100 µg/mL (≈ 264 µM), the MIC (Staphylococcus cohnii) was 100 µg/mL (≈ 264 µM) and the MIC [22] was 100 µg/mL (≈ 264 µM). The MIC [23] was 100 µg/mL (≈ 264 µM), the MIC [24] was 100 µg/mL and the MIC (Micrococcus luteus [25]) was 100 µg/mL. The MIC (Alcaligenes faecalis) was over 500 µg/mL, the MIC [26] was 100 µg/mL (≈ 264 µM) and the MIC [27] was 10 µg/mL (≈ 26.4 µM). The MIC (Corynebacterium sp.) was 100 µg/mL (≈ 264 µM), the MIC (Staphylococcus hominis) was 100 µg/mL (≈ 264 µM) and the MIC (Moraxella catarrhalis) was 500 µg/mL (≈ 1320 µM). For the same compound, the MIC [28] was 100 µg/mL (≈ 264 µM), the MIC (Acinetobacter sp.) was over 500 µg/mL and the MIC (Staphylococcus xylosus) was 100 µg/mL (≈ 264 µM). The MIC (Corynebacterium xerosis) was 30 µg/mL (≈ 79.2 µM) and the MIC (Micrococcus sp.) was 100 µg/mL (≈ 264 µM).
Work on `Nc1c(-c2nc3ccccc3s2)c(-c2ccc(Cl)cc2)nc2nc(N/N=C/c3cccc(F)c3)[nH]c(=O)c12` yielded an MIC (Pseudomonas aeruginosa [4]) of 25 µg/mL (≈ 46.1 µM), an MIC (Streptococcus pyogenes [5]) of 12.5 µg/mL and an MIC (Klebsiella pneumoniae) of 25 µg/mL (≈ 46.1 µM). The MIC (Staphylococcus aureus [6]) was 12.5 µg/mL (≈ 23.1 µM) and the MIC (Escherichia coli [7]) was 25 µg/mL (≈ 46.1 µM).
Work on `Nc1c(-c2nc3ccccc3s2)c(-c2ccc(Cl)cc2)nc2nc(N/N=C/c3cccc(Cl)c3)[nH]c(=O)c12` yielded an MIC (Pseudomonas aeruginosa [4]) of 50 µg/mL (≈ 89.5 µM), an MIC (Streptococcus pyogenes [5]) of 25 µg/mL and an MIC (Klebsiella pneumoniae) of 50 µg/mL (≈ 89.5 µM). For the same compound, the MIC (Staphylococcus aureus [6]) was 25 µg/mL (≈ 44.8 µM) and the MIC (Escherichia coli [7]) was 25 µg/mL (≈ 44.8 µM).
